Legend:
[1] = Measurement of fluorescence characteristics of compounds (fluorescence spectrophotometer); format: physicochemical; settings: 5 μM DMSO solution
Procedure: With respect to each of the compounds 7 to 23, a 5 μM DMSO solution was prepared, and an excitation wavelength and a fluorescence wavelength were measured by using a fluorescence spectrophotometer FL4500 manufactured by Hitachi High-Technologies Corporation (Table 1).

[2] = tested on: hematopoietic stem cells (bone marrow cells); test: Identification of hematopoietic stem cells in stained bone marrow cells by FACS with antibody markers (Experimental Examples 1-17, Comparative Examples 1-2); format: cell-based, C57BL/6 mouse; design: key to Identification of hematopoietic stem cells: A: Hematopoietic stem cells are identified very well.; B: Hematopoietic stem cells are identified well.; C: Hematopoietic stem cells are poorly identified; settings: for Identification of hematopoietic stem cells: mouse bone marrow cells, FACS
Procedure: A 1 mM DMSO solution of the compound 7 was added to an HBSS buffer containing 2% of FBS and 10 mM of HEPES, so as to obtain a stain of the compound 7 in a concentration of 1 μM. Bone marrow cells collected from a femur of a C57BL/6 mouse (of 12 weeks old) and hemolyzed were added to the stain in an amount of 1×10^6 cells/mL for exposure at 37° C. for 30 minutes. After the exposure, the cells were precipitated by centrifuge for removing the stain, and a blocking treatment was performed with 2.4G2 (anti-mouse Fcγ receptor II/III antibody-producing hybridoma supernatant). The blocked cells were further subjected to immunofluorescence staining with an anti c-Kit antibody, an anti Sca-1 antibody, an anti CD34 antibody and Lineage Marker. Furthermore, the cells were subjected to dead cell staining with TO-PRO-3. The respective antibodies used for fluorescence staining were selected so that the respective fluorescence wavelengths might not overlap one another and might not overlap the fluorescence wavelength of the compound 7 and the fluorescence wavelength of TO-PRO-3. Next, the resulting cells were analyzed with FACS Aria II cell sorter manufactured by BD Biosciences. In the analysis, cell populations having a low TO-PRO-3 signal were regarded as a target, so that the analysis could be performed on a cell population excluding dead cells.
First, fluorescence intensities of the cells obtained by analyzing fluorescence signals derived from the compound 7 based on signal intensities in two channels excited at 488 nm (PE-Cy5; 660/20 nm and PerCP-Cy 5.5; 710/50 nm: center wavelength/wavelength width) were developed into a cytogram.
Furthermore, among Lineage Marker negative cell fractions, cell fractions of Sca-1 positive, c-Kit positive and CD34 negative, which are used as markers for hematopoietic stem cells, were developed into cytograms as illustrated in FIG. 2 with respect to the two fluorescence signals derived from the compound 7 as in FIG. 1. […] Furthermore, merely cells identified by the compound 7 were separated by sorting.
Fluorescence signals derived from the compounds 8 to 23 were analyzed in the same manner as in Experimental Example 1 except that the compound 7 used in Experimental Example 1 was changed to each of the compounds 8 to 23.
Fluorescence signals derived from fluorescein were analyzed in the same manner as in Experimental Example 1 except that the compound 7 used in Experimental Example 1 was changed to fluorescein.
Fluorescence signals derived from Mito Tracker® Green FM were analyzed in the same manner as in Experimental Example 1 except that the compound 7 used in Experimental Example 1 was changed to Mito Tracker® Green FM.
The identification was evaluated in the following three grades A to C: […]

[3] = tested on: CD48 negative and CD150 positive fraction of bone marrow cells; test: Experimental Example 18: compound 7 staining with anti CD48 / anti CD150 antibody markers, flow cytometry; format: cell-based, mouse; settings: cytogram of two compound 7-derived fluorescence signals
Text: Cells collected from a mouse were subjected to the exposure to the compound 7 and a blocking treatment in the same manner as in Experimental Example 1. In order to evaluate incorporation of antibody markers, used as test substances, of an anti CD48 antibody and an anti CD150 antibody by hematopoietic stem cells, the blocked cells were further stained with the anti CD48 antibody and the anti CD150 antibody. Furthermore, the resulting cells were subjected to dead cell staining with TO-PRO-3. Next, the cells were analyzed with an FACS Canto II flow cytometer manufactured by BD Biosciences. In the analysis, cell populations having a low TO-PRO-3 signal were regarded as a target, so that the analysis could be performed on a cell population excluding dead cells.

[4] = tested on: c-Kit positive hematopoietic stem cells (bone marrow cells); test: Experimental Example 19: exposure to compound 7 in the presence of test substances, c-Kit staining, FACS; format: cell-based, mouse
Procedure: Cells collected from a mouse in the same manner as in Experimental Example 1 were exposed to the compound 7 in the presence of test substances of fumitremorgin C and digoxin (both in 1 μM). After performing a blocking treatment in the same manner as in Experimental Example 1, the resulting cells were stained with an anti c-Kit antibody, that is, a marker for hematopoietic stem cells and hematopoietic precursor cells. The cells were further subjected to the dead cell staining with TO-PRO-3. Next, the cells were analyzed with FACS Aria II cell sorter manufactured by BD Biosciences. In the analysis, cell populations having a low TO-PRO-3 signal were regarded as a target, so that the analysis could be performed on a cell population excluding dead cells.
In other words, hematopoietic stem cell groups that were c-Kit positive and negative for the compound 7-derived signal were confirmed to be reduced by adding the test substances.

[5] = cells exposed to compound 7 in the presence of test substance 1 μM

SMILES | Excitation wavelength λex [1] | Fluorescence wavelength λem [1] | Identification of hematopoietic stem cells ([2]; stain 1 μM, 37° C., 30 minutes) | Whether hematopoietic stem cells can be identified (in words) ([2]; same manner as Experimental Example 1) | Lineage Marker negative, Sca-1 positive, c-Kit positive and CD34 negative hematopoietic stem cell fractions found in cell population having low incorporation of the probe ([2]; stain 1 μM, 37° C., 30 minutes, two channels excited at 488 nm) | Cells of CD48 negative and CD150 positive fraction present in region where hematopoietic stem cells were identified [3] | c-Kit positive, compound 7-derived signal negative hematopoietic stem cells in the whole cells ([4]; in the absence of an inhibitor (w/o inhibitors)) | c-Kit positive, compound 7-derived signal negative hematopoietic stem cells in the whole cells [4, 5]
CCN1C(=O)/C(=c2\s/c(=C/c3ccc4c(c3)C3CCCC3N4c3ccccc3)c(=O)n2CC(=O)O)SC1=S (stereo not shown) [Compound 12] | 531 nm | 615 nm | A |  |  |  |  | 
COc1ccc(N2c3ccc(/C=C4/SC(=S)N(CC(=O)NCC(=O)O)C4=O)cc3C3CCCC32)cc1 (stereo not shown) [Compound 22] | 511 nm | 626 nm | A |  |  |  |  | 
O=C(O)CNC(=O)CN1C(=O)/C(=C\c2ccc3c(c2)C2CCCC2N3c2ccccc2)SC1=S (stereo not shown) [Compound 23] | 499 nm | 598 nm | A |  |  |  |  | 
CCN1C(=O)/C(=c2\s/c(=C/c3ccc4c(c3)C3CCCC3N4c3cccc(SC)c3)c(=O)n2CC(=O)O)SC1=S (stereo not shown) [Compound 21] | 530 nm | 612 nm | A |  |  |  |  | 
CCCCN1C(=O)/C(=c2\s/c(=C/c3ccc4c(c3)C3CCCC3N4c3ccc(OC)cc3)c(=O)n2CC)SC1=S (stereo not shown) [Compound 7] | 539 nm | 638 nm | A | hematopoietic stem cells can be identified | 94.7% | 89.4% | 0.75% | 
C=CCN1C(=O)/C(=c2\s/c(=C/c3ccc4c(c3)C3CCCC3N4c3ccc(OC)cc3)c(=O)n2CC(=O)O)SC1=S (stereo not shown) [Compound 15] | 504 nm | 606 nm | A |  |  |  |  | 
COc1ccc2c3c([nH]c2c1)[C@H](C=C(C)C)N1C(=O)[C@@H]2CCCN2C(=O)[C@@H]1C3 [fumitremorgin C] |  |  |  |  |  |  |  | 0.00%
CCN1C(=O)/C(=c2\s/c(=C/c3cc(Br)c4c(c3)C3CCCC3N4Cc3ccccc3)c(=O)n2CC(=O)O)SC1=S (stereo not shown) [Compound 14] | 596 nm | 520 nm | A |  |  |  |  | 
CCN1C(=O)/C(=c2\s/c(=C/c3ccc4c(c3)C3CCCC3N4c3ccc(OC)cc3)c(=O)n2CC(=O)O)SC1=S (stereo not shown) [Compound 9] | 543 nm | 638 nm | A |  |  |  |  | 
CCN1C(=O)/C(=c2\s/c(=C/c3ccc4c(c3)C3CCCC3N4Cc3ccccc3)c(=O)n2CC(=O)O)SC1=S (stereo not shown) [Compound 17] | 535 nm | 612 nm | A |  |  |  |  | 
O=C(O)Cn1c(=O)/c(=C\c2ccc3c(c2)C2CCCC2N3Cc2ccccc2)s/c1=C1/SC(=S)N(Cc2ccccc2)C1=O (stereo not shown) [Compound 10] | 540 nm | 614 nm | A |  |  |  |  | 
C[C@H]1O[C@@H](O[C@H]2[C@@H](O)C[C@H](O[C@H]3[C@@H](O)C[C@H](O[C@H]4CC[C@@]5(C)[C@H](CC[C@@H]6[C@@H]5C[C@@H](O)[C@]5(C)[C@@H](C7=CC(=O)OC7)CC[C@]65O)C4)O[C@@H]3C)O[C@@H]2C)C[C@H](O)[C@@H]1O [digoxin] |  |  |  |  |  |  |  | 0.50%
CCN1C(=O)/C(=c2\s/c(=C/c3ccc4c(c3)C3CCCC3N4c3ccc(SC)cc3)c(=O)n2CC(=O)O)SC1=S (stereo not shown) [Compound 13] | 539 nm | 636 nm | A |  |  |  |  | 
CCN1C(=O)S/C(=c2/s/c(=C/c3ccc4c(c3)C3CCCC3N4Cc3ccccc3)c(=O)n2CC(=O)O)C1=O (stereo not shown) [Compound 16] | 500 nm | 578 nm | B |  |  |  |  | 
CCCN1C(=O)/C(=c2\s/c(=C/c3ccc4c(c3)C3CCCC3N4c3ccc(OC)cc3)c(=O)n2CC)SC1=S (stereo not shown) [Compound 18] | 539 nm | 636 nm | A |  |  |  |  | 
CCCCCN1C(=O)/C(=c2\s/c(=C/c3ccc4c(c3)C3CCCC3N4c3ccc(OC)cc3)c(=O)n2CC)SC1=S (stereo not shown) [Compound 19] | 538 nm | 638 nm | B |  |  |  |  | 
CCN1C(=O)/C(=c2\s/c(=C/c3cc(Br)c4c(c3)C3CCCC3N4c3ccc(Br)cc3)c(=O)n2CC(=O)O)SC1=S (stereo not shown) [Compound 8] | 513 nm | 600 nm | A |  |  |  |  | 
O=C1OC2(c3ccc(O)cc3Oc3cc(O)ccc32)c2ccccc21 [Fluorescein, fluorescein, reference compound] |  |  | C (not stained |  |  |  |  | 
COc1ccc(N2c3ccc(/C=c4/s/c(=C5/SC(=S)N(Cc6ccccc6)C5=O)n(CC(=O)O)c4=O)cc3C3CCCC32)cc1 (stereo not shown) [Compound 11] | 542 nm | 643 nm | A |  |  |  |  | 
CCn1c(=O)/c(=C\c2ccc3c(c2)C2CCCC2N3c2ccccc2)s/c1=C1/SC(=S)N(CC(=O)O)C1=O (stereo not shown) [Compound 20] | 533 nm | 615 nm | B |  |  |  |  | 
